Data as given in US20050170345A1, “Neuroglobin is up-regulated by and protects neurons from hypoxic-ischemic injury” (priority 2001, published 2005).
“Also recorded” adds a separate entry of the source. {Fluorescein} = fluorescein label

Experiments:
Format in all cases: cell-based, mouse
Ngb mRNA = test: Ngb protein expression in cultured cortical neurons transfected with antisense/sense ODN (Western blot); settings: ODN-transfected cortical neurons vs sense-transfected or untransfected control cultures
Method: Cell lysates were prepared as described (Jin et al. (2000) Proc. Natl. Acad. Sci. U.S.A. 97: 10242-10247) and 100-μg protein samples were electrophoresed on 12% SDS-PAGE gels and transferred to polyvinyldifluoridine membranes. Membranes were incubated overnight at 4° C. with a rabbit polyclonal antibody against Ngb (1:2000), which was produced by immunizing with a synthetic peptide corresponding to amino-acids 35-50 (NH2-CLSSPEFLDHIRKVML-COOH, , SEQ ID NO:1) of mouse Ngb, and affinity-purified using a Sulfolink kit (Pierce). A horseradish peroxidase-conjugated anti-rabbit secondary antibody (Santa Cruz Biotechnology) and a chemiluminescence substrate system (NEN) were used to visualize the immunolabeled bands (Id.).
(§1) A phosphorothioate antisense ODN labeled with fluorescein at the 5′ end and directed against the initial coding region of the target Ngb mRNA (5′-TCC GGG CGC TCC AT-3′, from nucleotides 90-77, SEQ ID NO:2)was designed based on the mouse Ngb sequence obtained from Genbank (accession number NM 022414). […] Cultures were analyzed by Western blotting and by MTT cell viability assay, and fluorescence microscopy was used to confirm transfection and examine its relationship to cell death, using caspase-3 activation as a marker.

[1] = system: 17-20 kDa caspase-3 cleavage product; test: Caspase-3 cleavage product immunofluorescence in ODN-transfected cortical neurons; settings: fluorescence microscopy, hypoxic cortical neurons
Method: Cultures were fixed with 4% paraformaldehyde and incubated over night at 4° C. with one or more of the following primary antibodies: rabbit polyclonal anti-Ngb (1:200), mouse monoclonal anti-NeuN (1:200, Chemicon), and rabbit polyclonal anti-17-20 kDa caspase-3 cleavage product (1:100, New England Biolabs). The secondary antibodies (all 1:200) were fluorescein isothiocyanate-conjugated goat anti-rabbit or anti-mouse IgG (Vector) and rhodamine-conjugated donkey anti-rabbit IgG (Jackson ImmunoResearch). Controls for non-specific binding included omitting primary (FIG. 1C) or secondary antibodies. In addition, in some cultures, nuclei were labeled with 4′,6-diamidino-2-phenylindole (DAPI) or DNA strand breaks were labeled with the Klenow fragment of DNA polymerase I (Roche) followed by rhodamine avidin D (Vector), as described (Jin et al. (1999) J Neurochem 72: 1204-1214). Fluorescence signals were detected with a Nikon E800 epifluorescence microscope using excitation/emission wavelengths of 535/565 nm for rhodamine (red), 470/505 nm for fluorescein isothiocyanate (green) and 360/400 nm for DAPI (blue). Results were recorded with a Magnifire digital color camera (Optronics). […]

[2] = system: cultured cortical neurons; test: Cell viability (MTT absorbance, trypan blue exclusion) of ODN-treated cultured cortical neurons
Method: Neuronal cultures were prepared from the cerebral hemispheres of 16-day Charles River CD1 mouse embryos, seeded at 3×10^5 cells per well on 24-well culture dishes precoated with poly-D-lysine, and grown in Eagle's minimal essential medium (GIBCO BRL) with 5% horse serum and 5% fetal bovine serum (Jin et al. (2000) Proc. Natl. Acad. Sci. U.S.A. 97: 10242-10247). Cultures were treated with 10 μM cytosine arabinoside on day 6 and used on day 11, when >95% of cells expressed the neuronal marker, microtubule-associated protein 2. […] Cell viability was assayed by incubating cultures with 5 mg/ml of 3-(4,5-dimethylthiazol-2-yl)-2,5-diphenyl tetrazolium bromide (MTT) at 37° C. for 2 h and measuring absorbance at 570 nm in solubilized cells using a Cytofluor Series 4000 multi-well plate-reader (PerSeptive Biosystems). […]
as §1

[3] = system: cultured cortical neurons; test: Transfection efficiency of fluorescent ODN in cortical neuron cultures; settings: fluorescent Ngb antisense ODN, DAPI counterstain, n=10
Description: A phosphorothioate antisense ODN labeled with fluorescein at the 5′ end and directed against the initial coding region of the target Ngb mRNA (5′-TCC GGG CGC TCC AT-3′, from nucleotides 90-77, SEQ ID NO:2)was designed based on the mouse Ngb sequence obtained from Genbank (accession number NM 022414). This and a sense sequence (5′-ATG GAG CGC CCG GA-3′, SEQ ID NO:3), from nucleotides 77-90) were synthesized commercially (Operon Technologies) and purified by HPLC. Cultures were transfected with ODNs (1-10 μM) using FuGENE 6 (Roche), beginning 3 h before the onset of hypoxia. Cultures were analyzed by Western blotting and by MTT cell viability assay, and fluorescence microscopy was used to confirm transfection and examine its relationship to cell death, using caspase-3 activation as a marker.
To begin to investigate the possibility that Ngb protects neurons from hypoxia, cultured neurons were transfected with a phosphorothioate antisense ODN directed against the initial coding region of the target Ngb mRNA (5′-TCC GGG CGC TCC AT-3′, from nucleotides 90-77, SEQ ID NO:4) or with a control sense sequence (5′-ATG GAG CGC CCG GA-3′, from nucleotides 77-90, SEQ ID NO:5), both labeled with fluorescein at the 5′ end. Transfection efficiency, measured in cultures transfected with the fluorescent Ngb antisense ODN and counterstained with DAPI, was 96±1% (n=10). […]

5′-TCC GGG CGC TCC AT-3′ (antisense TCCGGGCGCTCCAT; DNA, all phosphorothioate, 5' {Fluorescein}, methylation of C not given here) [antisense ODN]
Ngb protein expression (Ngb mRNA): reduced; also recorded: decreased Ngb expression | transfected cells co-expressing the 17-20 kDa caspase-3 cleavage product [1]: many | effect on the toxicity of staurosporine or SNP ([2]; 0.1 μM staurosporine or 200-400 μM SNP, 12 h, 5 μM ODN): no effect | viability of cultured neurons exposed to hypoxia ([2]; 12 h without oxygen, 5 μM ODN added 3 h prior, MTT absorbance or trypan blue exclusion): decrease in the viability | Transfection efficiency [3]: 96±1%
